Laboratory results taken from patent US9745310B2 (SK BIOPHARMACEUTICALS CO., LTD., priority 2015, dated 2017).

Target: human mGluR5 receptor (Homo sapiens (Human), UniProt P41594)
Assay: Calcium influx assay based on fluorescence (mGluR5 PAM activity)
Settings: human mGluR5 receptor-overexpressed HEK293 cell line; L-glutamate EC20; Fluo-4, FLIPR
Procedure, shortened: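 HEK293 cells overexpressing human mGluR5, loaded 1 h with Fluo-4 at 37° C. Compounds (10 μM to 10 nM final, 0.1–0.2% DMSO) added with an EC20 concentration of L-glutamate, and Ca2+ response read by FLIPR at room temperature. Activity scaled as 0% for EC20 glutamate alone and 100% for glutamate maximum.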

Chain of human mGluR5 receptor (P41594 21-1212): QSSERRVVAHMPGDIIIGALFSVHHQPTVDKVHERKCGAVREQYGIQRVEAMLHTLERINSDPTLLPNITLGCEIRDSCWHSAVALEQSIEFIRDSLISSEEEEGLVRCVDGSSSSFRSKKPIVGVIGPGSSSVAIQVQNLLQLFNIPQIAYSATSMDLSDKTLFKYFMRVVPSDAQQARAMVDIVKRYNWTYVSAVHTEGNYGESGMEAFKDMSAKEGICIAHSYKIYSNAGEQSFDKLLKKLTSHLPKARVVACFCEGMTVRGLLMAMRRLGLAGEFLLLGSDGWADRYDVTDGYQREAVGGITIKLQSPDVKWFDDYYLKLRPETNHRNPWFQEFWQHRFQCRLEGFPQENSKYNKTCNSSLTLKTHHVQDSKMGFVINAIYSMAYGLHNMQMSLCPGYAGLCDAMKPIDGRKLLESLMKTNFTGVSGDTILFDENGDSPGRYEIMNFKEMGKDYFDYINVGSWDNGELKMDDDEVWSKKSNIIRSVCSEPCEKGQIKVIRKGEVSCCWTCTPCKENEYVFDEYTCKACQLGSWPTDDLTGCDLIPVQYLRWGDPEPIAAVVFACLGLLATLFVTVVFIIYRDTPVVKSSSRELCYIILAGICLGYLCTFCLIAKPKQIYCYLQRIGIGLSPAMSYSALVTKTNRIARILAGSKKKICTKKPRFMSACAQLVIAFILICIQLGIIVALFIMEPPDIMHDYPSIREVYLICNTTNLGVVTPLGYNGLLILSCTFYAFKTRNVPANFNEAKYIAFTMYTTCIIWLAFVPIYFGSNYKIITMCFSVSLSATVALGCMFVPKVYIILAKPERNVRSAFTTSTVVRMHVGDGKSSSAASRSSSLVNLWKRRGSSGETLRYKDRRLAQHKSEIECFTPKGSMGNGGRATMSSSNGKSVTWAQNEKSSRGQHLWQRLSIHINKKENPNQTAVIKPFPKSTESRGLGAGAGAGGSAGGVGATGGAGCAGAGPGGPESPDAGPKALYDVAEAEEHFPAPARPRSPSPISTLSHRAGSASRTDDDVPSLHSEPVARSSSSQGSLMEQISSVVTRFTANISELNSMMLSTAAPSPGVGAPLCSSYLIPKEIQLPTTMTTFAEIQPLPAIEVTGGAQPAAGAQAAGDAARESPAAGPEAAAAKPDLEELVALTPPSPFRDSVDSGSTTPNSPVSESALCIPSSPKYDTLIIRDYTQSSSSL

Structure (SMILES) | EC50
Nc1cc(F)ccc1-c1cnc2nc(COc3cccc(F)c3)cn2c1 [Example 101, 5-fluoro-2-[2-[(3-fluorophenoxy)methyl]imidazo[1,2-a]pyrimidin-6-yl]aniline] | 100 to 500 nM
Fc1cncc(OCc2cn3cc(-c4ccc(F)cc4C(F)(F)F)cnc3n2)c1 [Example 173, 2-[(5-fluoro-3-pyridyl)oxymethyl]-6-[4-fluoro-2-(trifluoromethyl)phenyl]imidazo[1,2-a]pyrimidine] | 500 to 1000 nM
Cc1ccccc1-c1cnc2nc(COc3ccc(F)cc3)cn2c1 [Example 60, 2-[(4-fluorophenoxy)methyl]6-(o-tolyl)imidazo[1,2-a]pyrimidine] | 100 to 500 nM
Nc1ccccc1-c1cnc2nc(COc3ccccc3)cn2c1 [Example 10, 6-(2-aminophenyl)-2-phenoxymethylimidazo[1,2-a]pyrimidine] | 100 to 500 nM
Cc1cc(F)ccc1-c1cnc2nc(COc3cccnc3)cn2c1 [Example 149, 6-(4-fluoro-2-methylphenyl)-2-(pyridin-3-yloxymethyl)imidazo[1,2-a]pyrimidine] | 100 to 500 nM
Fc1ccc(-c2cnc3nc(COc4ccccn4)cn3n2)c(F)c1 [Example 180, 2-(2,4-difluorophenyl)-6-((pyridin-2-yloxy)methyl)imidazo[1,2-b][1,2,4]triazine] | 100 to 500 nM
COc1ccc(-c2cnc3nc(COc4ccc(F)cc4)cn3c2)cc1N [Example 84, 5-[2-[(4-fluorophenoxy)methyl]imidazo[1,2-a]pyrimidin-6-yl]-2-methoxy-aniline] | 500 to 1000 nM
Fc1ccc(-c2cnc3nc(COc4ccccc4)cn3c2)nc1 [Example 40, 6-(5-fluoro-2-pyridyl)-2-phenoxymethylimidazo[1,2-a]pyrimidine] | 100 to 500 nM
CN(C)c1ccccc1-c1cnc2nc(COc3ccccc3)cn2c1 [Example 14, 6-(2-dimethylaminophenyl)-2-phenoxymethylimidazo[1,2-a]pyrimidine] | 100 to 500 nM
Oc1cc(-c2cnc3nc(COc4ccc(F)cc4)cn3c2)ccc1F [Example 55, 2-fluoro-5-[2-[(4-fluorophenoxy)methyl]imidazo[1,2-a]pyrimidin-6-yl]phenol] | 100 to 500 nM
Cc1c(F)cccc1-c1cnc2nc(COc3ccccn3)cn2c1 [Example 109, 6-(3-fluoro-2-methylphenyl)-2-(pyridin-2-yloxymethyl)imidazo[1,2-a]pyrimidine] | 100 to 500 nM
COc1cc(-c2cnc3nc(COc4ccccc4)cn3c2)c(F)cc1F [Example 28, 6-(2,4-difluoro-5-methoxyphenyl)-2-phenoxymethylimidazo[1,2-a]pyrimidine] | 500 to 1000 nM
COc1cc(Cl)ccc1-c1cnc2nc(COc3ccc(F)cc3)cn2c1 [Example 69, 6-(4-chloro-2-methoxy-phenyl)-2-[(4-fluorophenoxy)methyl]imidazo[1,2-a]pyrimidine] | 100 to 500 nM
OCc1cc(F)ccc1-c1cnc2nc(COc3cncc(F)c3)cn2c1 [Example 177, [5-fluoro-2-[2-[(5-fluoro-3-pyridyl)oxymethyl]imidazo[1,2-a]pyrimidin-6-yl]phenyl]methanol] | 500 to 1000 nM
COc1ccc(-c2cnc3nc(COc4ccccc4)cn3c2)cn1 [Example 30, 6-(6-methoxypyridin-3-yl)-2-phenoxymethylimidazo[1,2-a]pyrimidine] | 500 to 1000 nM
Cc1cc(F)ccc1-c1cnc2nc(COc3ccc(F)nc3)cn2c1 [Example 158, 6-(4-fluoro-2-methylphenyl)-2-(6-fluoropyridin-3-yloxymethyl)imidazo[1,2-a]pyrimidine] | 100 to 500 nM
Cc1ccc(-c2cnc3nc(COc4ccc(F)cc4)cn3c2)cc1N [Example 72, 5-[2-[(4-fluorophenoxy)methyl]imidazo[1,2-a]pyrimidin-6-yl]-2-methyl-aniline] | 100 to 500 nM
COc1cc(C#N)ccc1-c1cnc2nc(COc3ccccn3)cn2c1 [Example 136, 3-methoxy-4-[2-(2-pyridyloxymethyl)imidazo[1,2-a]pyrimidin-6-yl]benzonitrile] | 500 to 1000 nM
Cc1ccccc1-c1cnc2nc(COc3ccnc(F)c3)cn2n1 [Example 185, 2-(2-methylphenyl)-6-((2-fluoropyridin-4-yloxy)methyl)imidazo[1,2-b][1,2,4]triazine] | 100 to 500 nM
Cc1cc(F)ccc1-c1cnc2nc(COc3ccccn3)cn2c1 [Example 106, 6-(4-fluoro-2-methylphenyl)-2-(pyridin-2-yloxymethyl)imidazo[1,2-a]pyrimidine] | 100 to 500 nM
Fc1ccc(OCc2cn3cc(-c4ccnc(F)c4)cnc3n2)cc1 [Example 62, 2-[(4-fluorophenoxy)methyl]-6-(2-fluoro-4-pyridyl)imidazo[1,2-a]pyrimidine] | 500 to 1000 nM
Fc1cccc(OCc2cn3cc(-c4ccc(F)nc4F)cnc3n2)c1 [Example 71, 6-(2,6-difluoro-3-pyridyl)-2-[(3-fluorophenoxy)methyl]imidazo[1,2-a]pyrimidine] | 100 to 500 nM
Cc1ccc(N)c(-c2cnc3nc(COc4cccc(F)c4)cn3c2)c1 [Example 100, 2-[2-[(3-fluorophenoxy)methyl]imidazo[1,2-a]pyrimidin-6-yl]-4-methyl-aniline] | 500 to 1000 nM
Cc1ccc(N)c(-c2cnc3nc(COc4ccc(F)cc4)cn3c2)c1 [Example 76, 2-[2-[(4-fluorophenoxy)methyl]imidazo[1,2-a]pyrimidin-6-yl]-4-methyl-aniline] | 100 to 500 nM
OCc1cc(F)ccc1-c1cnc2nc(COc3ccccn3)cn2c1 [Example 135, [5-fluoro-2-[2-(2-pyridyloxymethyl)imidazo[1,2-a]pyrimidin-6-yl]phenyl]methanol] | 100 to 500 nM
